# Test results taken from patent US4783401A (priority 1986, dated 1988).
# Tests used:
# V79 cells [1] = tested on: V79 cells
# V79 cells [2] = tested on: V79 cells; remark: listed apart in the source
# rabbit red cells = details: in vivo
# cells = details: cited from earlier work
compound,measurement,setting,value
"O=S(=O)(O)CCCNC1CCCCC1 [CAPS, 3-(Cyclohexylamino)-1-propanesulfonic acid]",effect on cell doubling time compared to phosphate buffered saline,Yac cells,negligable effects on cell doubling time
"O=S(=O)(O)CC(O)CN(CCO)CCO (stereo not drawn) [DIPSO, 3-[N--N--bis(2-hydroxyethyl)amino]-2-hydroxypropane-sulfonic acid]",effect on cell doubling time compared to phosphate buffered saline,Yac cells,negligable effects on cell doubling time
CCCCCCCCCCCCCCN1C(=CC=Cc2oc3ccccc3[n+]2CCCCCCCCCCCCCC)Oc2ccccc21 [DiOC14 (3)],"Effect on cell viability, Propidium Iodide exclusion",V79 cells [1],absence of effect on cell viability
same,"Effect on cell viability, Trypan Blue Exclusion",V79 cells [1],absence of effect on cell viability
same,Cell doubling time of stained cells,V79 cells [2],unaffected
CCCCCCCCCCCCCCN1C(=CC=CC=Cc2sc3ccccc3[n+]2CCCCCCCCCCCCCC)Sc2ccccc21 [DiSC14 (5)],effect on clearance rate of red blood cells,rabbit red cells,did not affect the clearance rate of red blood cells
same,lifetime of labelled red cells in circulation,rabbit red cells,52 days
"O=S(=O)(O)CCCN1CCN(CCO)CC1 [EPPS, N--(2-Hydroxyethyl)piperazine-N'--3-propanesulfonic acid]",effect on cell doubling time compared to phosphate buffered saline,Yac cells,negligable effects on cell doubling time
O=C[C@H](O)[C@@H](O)[C@H](O)[C@H](O)CO [Glucose],effect on cell doubling time compared to phosphate buffered saline,Yac cells,negligable effects on cell doubling time
"O=S(=O)(O)CC(O)CN1CCN(CCO)CC1 (stereo not drawn) [HEPPSO, N--2-hydroxyethylpiperazine-N'--2-hydroxypropane-sulfonic acid]",effect on cell doubling time compared to phosphate buffered saline,Yac cells,negligable effects on cell doubling time
OC[C@H]1O[C@@](CO)(O[C@H]2O[C@H](CO)[C@@H](O)[C@H](O)[C@H]2O)[C@@H](O)[C@@H]1O [Sucrose],Doubling Time,Yac cells,41.0 h
same,effect on cell doubling time compared to phosphate buffered saline,Yac cells,negligable effects on cell doubling time
"O=S(=O)(O)CCCNC(CO)(CO)CO [TAPS, Tris(hydroxymethyl)-methylaminopropane sulfonic acid]",effect on cell doubling time compared to phosphate buffered saline,Yac cells,negligable effects on cell doubling time
CCCCN1C(=O)C(=CC=CC=C2Oc3ccccc3N2CCCS(=O)(=O)O)C(=O)N(CCCC)C1=S [merocyanine 540],cytotoxicity,cells,cytotoxic when the cell is exposed to light
Phosphate Buffered Saline,Doubling Time,Yac cells,31.0 h
